Source: paper PMC2612642 (Antiviral research, 2008)
Values after ≈ are worked out from the molar mass of the structure shown. Like-named read-outs stand apart in the source and are kept apart here. Marks after values point to notes of the source that are not given here.

Key:
[1] = test system: TC-83 strain of VEEV; assay type: cell-based, Venezuelan equine encephalitis virus
[2] = test system: TC-83 strain of VEEV; assay type: cell-based, Venezuelan equine encephalitis virus; remark: listed apart in the source
[3] = test system: TC-83 strain of VEEV; assay type: cell-based, Venezuelan equine encephalitis virus; remark: listed apart in the source
[4] = test system: Vero cells
[5] = test system: intracellular CTP pools; assay type: cell-based
[6] = test system: Vero cells; remark: listed apart in the source
[7] = test system: TC-83 VEEV; set-up: species or system C3H/HeN mice; details: mouse, in vivo
[8] = test system: TC-83 VEEV; assay: microbe, parasite or virus in culture; assay type: cell-based, Venezuelan equine encephalitis virus
[9] = test system: TrD VEEV; set-up: species or system ICR mice; details: mouse, in vivo
[10] = test system: TC-83 VEEV; set-up: species or system C3H/HeN mice; details: mouse, in vivo; remark: listed apart in the source
[11] = in vivo, iv; cited from earlier work
[12] = test system: TC-83 VEEV; assay: microbe, parasite or virus in culture; assay type: cell-based; details: Venezuelan equine encephalitis virus, read-out: EC50 (neutral red uptake)

Row | Compound | EC90 [1] [µg/mL] | EC50 (NR) [2] [µg/mL] | EC50 (vis) [3] | IC50 [4] [µg/mL] | IC50 (visual inspection) [6] [µg/mL] | IC50 (neutral red uptake) [4] [µg/mL] | other results
1 | Nc1ccn([C@H]2C[C@@H](CO)[C@H](O)[C@@H]2O)c(=O)n1 (racemic) [(+/-)-carbodine, Carbocyclic cytidine] | 1.7 (≈ 7.05 µM) | 0.70 (≈ 2.9 µM) | 0.68 µg/mL (≈ 2.82 µM) | >100 |  |  | 
2 | Nc1ccn([C@H]2C[C@@H](CO)[C@H](O)[C@@H]2O)c(=O)n1 [(+)-carbodine] | >100 | >100 | >100 µg/mL | >100 |  |  | Intracellular CTP reduction [5]: not reduced; Activity against TC-83 vaccine strain of VEEV [2]: no activity
3 | Nc1ccn([C@@H]2C[C@H](CO)[C@@H](O)[C@H]2O)c(=O)n1 [(-)-carbodine] | 0.4 ± 0.2 (≈ 1.66 µM) | 0.2 ± 0.0 (≈ 0.829 µM) | 0.3 ± 0.2 ^f μg/ml | >100 | >100 | >100 | Reduction in intracellular CTP [5]: 65%; Mortality rate [7]: 50%; Cytidine concentration at which activity was completely abolished [8]: 10 to 32 µg/mL; Survival [9]: all animals died; Mean time to death vs placebo ([9]; ip): slight, but significant, extension; Reduction of brain virus titer vs placebo [10]: 10 fold
4 | Nc1ccn([C@@H]2C=C(CO)[C@@H](O)[C@H]2O)c(=O)n1 [Cyclopentenyl cytosine] |  |  |  |  |  |  | Adverse effects in human patients with solid tumors [11]: hypotension and death
5 | Nc1ccn([C@@H]2O[C@H](CO)[C@@H](O)[C@H]2O)c(=O)n1 [Cytidine, cytidine, reference compound] |  |  |  |  |  |  | EC50 [12]: > 100 µg/mL; EC50 ([8]; Venezuelan equine encephalitis virus, read-out: EC50 (visual inspection)): > 100 µg/mL
6 | Interferon alfacon-1 | 0.06 | 0.05 | 0.06 µg/mL | >10 | >10 | >10 | EC50 (visual inspection) [8]: 0.06 µg/mL
